Measurements as given in ChEMBL document CHEMBL5120920, “A Mitochondria-Targeted Phenylbutyric Acid Prodrug Confers Drastically Improved Anticancer Activities” (J Med Chem, 2022).
The source made the active and inactive calls. No cut-off for these calls is given here.

Columns and labels:
[1] = test system: A-375; experiment: Cytotoxicity against human A-375 cells assessed as reduction in cell vaibility measured at 24 hrs in absence of BNPP by MTT assay; format: functional, cell-based; settings: A-375, 24 h
[2] = test system: A-375; experiment: Induction of mitochondrial membrane depolarization in human A-375 cells assessed as reduction in red fluorescence intensity incubated for 4 hrs by TMRM staining based fluorescence microscopy analysis; format: functional, cell-based; settings: dose 2.5-10 µM, DDE = dose-dependent effect
[3] = Toxicity in BALB/c mouse assessed as histopathological changes in liver at 50 to 100 mg/kg, iv measured after 7 days by H and E staining based assay; format: organism-based; settings: in vivo, 168 h, dose 50-100 mg/kg, time 7 day
[4] = test system: A-375; experiment: Induction of cell cycle arrest in human A-375 cells assessed as accumulation at S phase at 7.5 uM incubated for 24 hrs by PI staining based flow cytometry analysis (reference value: 24.01 %); format: functional
[5] = test system: A-375; experiment: Induction of apoptosis in human A-375 cells assessed as apoptotic cells at 10 uM measured after 48 hrs by Annexin V FITC/PI staining based flow cytometry analysis relative to control; format: functional
[6] = test system: A-375; experiment: Induction of apoptosis in human A-375 cells assessed as apoptotic cells at 10 uM measured at 24 hrs by Annexin V FITC/PI staining based flow cytometry analysis relative to control; format: functional
[7] = Toxicity in BALB/c mouse assessed as animal death at 50 to 100 mg/kg, […] measured after 7 days; format: organism-based; settings: in vivo, 168 h, dose 50-100 mg/kg, time 7 day
[8] = test system: HaCaT; experiment: Induction of mitochondrial membrane hyperpolarization in human HaCaT cells assessed as JC-1 level at 2.5 to 10 uM incubated for 4 hrs by JC-1 staining based flow cytometry analysis relative to control; format: functional; settings: dose 2.5-10 µM
[9] = Toxicity in BALB/c mouse assessed as histopathological changes in lung at 50 to 100 mg/kg, iv measured after 7 days by H and E staining based assay; format: organism-based; settings: in vivo, 168 h, dose 50-100 mg/kg, time 7 day
[10] = test system: L02; experiment: Induction of mitochondrial membrane hyperpolarization in human L02 cells assessed as JC-1 level at 2.5 to 10 uM incubated for 4 hrs by JC-1 staining based flow cytometry analysis relative to control; format: functional; settings: dose 2.5-10 µM
[11] = test system: A-375; experiment: Antitumor activity against human A-375 cells xenografted in nude mouse assessed as decrease in bcl-2 expression at 40 mg/kg, ip measured once every two days for 14 days by immunohistochemistry assay; format: functional, organism-based; settings: time 14.0 day
[12] = test system: A-375; experiment: Induction of apoptosis in human A-375 cells assessed as apoptotic cells at 10 uM measured at 72 hrs by Annexin V FITC/PI staining based flow cytometry analysis relative to control; format: functional
[13] = Toxicity in BALB/c mouse assessed as histopathological changes in spleen at 50 to 100 mg/kg, iv measured after 7 days by H and E staining based assay; format: organism-based; settings: in vivo, 168 h, dose 50-100 mg/kg, time 7 day
[14] = Toxicity in BALB/c mouse assessed as effect on body weight at 125 to 200 mg/kg, iv administered for 7 days and measured once per 2 days; format: organism-based; settings: in vivo, 168 h, dose 125-200 mg/kg, time 7 day
[15] = test system: A-375; experiment: Induction of mitochondrial membrane depolarization in human A-375 cells assessed as increase in JC-1 monomer at 10 uM incubated for 4 hrs by JC-1 staining based flow cytometry analysis; format: functional, cell-based
[16] = Toxicity in BALB/c mouse assessed as change in body weight at 100 mg/kg, iv administered for 7 days and measured once per 2 days; format: organism-based; settings: in vivo, 168 h, time 7 day
[17] = test system: A549; experiment: Antiproliferative activity against human A549 cells assessed as inhibition of cell viability incubated for 72 hrs by MTT assay; format: functional, cell-based; settings: A549, 72 h
[18] = test system: A-375; experiment: Antitumor activity against human A-375 cells xenografted in nude mouse assessed as shrinkage of tumor tissue at 10 to 40 mg/kg, ip measured once every two days for 14 days; format: functional, organism-based; settings: dose 10-40 mg/kg, time 14.0 day
[19] = test system: A-375; experiment: Inhibition of cell migration in human A-375 cells incubated for 24 hrs by wound healing assay; format: functional, cell-based; settings: dose 1.5-2.5 µM, DDE = dose-dependent effect
[20] = Toxicity in BALB/c mouse assessed as histopathological changes in heart at 50 to 100 mg/kg, iv measured after 7 days by H and E staining based assay; format: organism-based; settings: in vivo, 168 h, dose 50-100 mg/kg, time 7 day
[21] = Toxicity in BALB/c mouse at 200 mg/kg, iv administered for 7 days; format: organism-based; settings: in vivo, 168 h, time 7 day
[22] = test system: A-375; experiment: Induction of apoptosis in human A-375 cells assessed as apoptotic cells at 5 uM measured after 48 hrs by Annexin V FITC/PI staining based flow cytometry analysis relative to control; format: functional
[23] = test system: A-375; experiment: Cytotoxicity against human A-375 cells assessed as reduction in cell vaibility measured at 72 hrs in presence of BNPP by MTT assay; format: functional, cell-based; settings: A-375, 72 h
[24] = test system: A-375; experiment: Cytotoxicity against human A-375 cells assessed as reduction in cell vaibility measured at 24 hrs in presence of BNPP by MTT assay; format: functional, cell-based; settings: A-375, 24 h
[25] = test system: A-375; experiment: Induction of mitochondrial membrane hyperpolarization in human A-375 cells assessed as JC-1 level at 2.5 to 10 uM incubated for 4 hrs by JC-1 staining based flow cytometry analysis relative to control; format: functional; settings: dose 2.5-10 µM
[26] = Apparent permeability across basolateral to apical side in human Caco-2 cells at 2 uM measured after 2 hrs by LC-MS/MS analysis; format: ADME, cell-based
[27] = test system: A-375; experiment: Antitumor activity against human A-375 cells xenografted in nude mouse assessed as tumor inhibition ratio at 40 mg/kg, ip measured once every two days for 14 days; format: functional; settings: A-375, 336 h, time 14 day, read-out: TGI
[28] = test system: A-375; experiment: Cytotoxicity against human A-375 cells assessed as reduction in cell vaibility measured at 48 hrs in absence of BNPP by MTT assay; format: functional, cell-based; settings: A-375, 48 h
[29] = test system: A-375; experiment: Antitumor activity against human A-375 cells xenografted in nude mouse assessed as induction of apoptosis by measuring morphological changes at 40 mg/kg, ip measured once every two days for 14 days by H and E staining based assay; format: functional, organism-based; settings: time 14.0 day
[30] = test system: A-375; experiment: Inhibition of glycolysis in human A-375 cells assessed as reduction in extracellular acidification rate at 0.25 to 5 uM measured after 4 hrs; format: functional, cell-based; settings: dose 0.25-5 µM
[31] = Drug uptake in human A-375 cells mitochondria assessed as fold increase at 10 uM measured after 4 hrs relative to PBA; format: ADME; settings: a-375, 4 h
[32] = Apparent permeability across apical to basolateral side in human Caco-2 cells at 2 uM measured after 2 hrs by LC-MS/MS analysis; format: ADME, cell-based
[33] = test system: HUVEC; experiment: Induction of mitochondrial membrane hyperpolarization in HUVEC assessed as JC-1 level at 2.5 to 10 uM incubated for 4 hrs by JC-1 staining based flow cytometry analysis relative to control; format: functional, Homo sapiens; settings: dose 2.5-10 µM
[34] = test system: A-375; experiment: Induction of cell cycle arrest in human A-375 cells assessed as accumulation at G2 phase at 5 uM incubated for 24 hrs by PI staining based flow cytometry analysis (reference value: 7.92 %); format: functional
[35] = test system: A-375; experiment: Antitumor activity against human A-375 cells implanted in BALB/c mouse assessed as shrinkage of tumor tissue at 40 mg/kg, ip measured once every two days for 14 days; format: functional, organism-based; settings: time 14.0 day
[36] = test system: A-375; experiment: Antitumor activity against human A-375 cells xenografted in nude mouse assessed as reduction in tumor weight at 10 to 40 mg/kg, ip measured once every two days for 14 days; format: functional, organism-based; settings: dose 10-40 mg/kg, time 14.0 day

## O=C(CCCCCCCCC[P+](c1ccc(C(F)(F)F)cc1)(c1ccc(C(F)(F)F)cc1)c1ccc(C(F)(F)F)cc1)NC(COC(=O)CCCc1ccccc1)(COC(=O)CCCc1ccccc1)COC(=O)CCCc1ccccc1.[Br-]
[1]
  IC50: 6.06 µM
[2]
  Activity: Dde
[3]
  Activity: Non-Toxic
[4]
  Activity: 11.75%
[5]
  Activity: 50%
[6]
  Activity: 7%
[7]
  Activity: Non-Toxic
[8]
  Activity: 12.67%
[9]
  Activity: Non-Toxic
[10]
  Activity: 11.49%
[11]
  Activity: Active
[12]
  Activity: 77%
[13]
  Activity: Non-Toxic
[14]
  Activity: Non-Toxic
[15]
  Activity: Active
[16]
  Activity: Non-Toxic
[17]
  IC50: 4.72 µM
[18]
  Activity: Active
[19]
  inhibition: Dde
[20]
  Activity: Non-Toxic
[21]
  Activity: Non-Toxic
[22]
  Activity: 12%
[23]
  IC50: 14.1 µM
[24]
  IC50: 28.4 µM
[25]
  Activity: 2.22%
[26]
  Papp B→A at 2 h, 2 µM: 16.8 ×10⁻⁶ cm/s
[27]
  inhibition in vivo at 40 mg/kg: 76%
[28]
  IC50: 3.34 µM
[29]
  Activity: Active
[30]
  inhibition: Active
[31]
  Drug uptake: Active
[32]
  Papp A→B at 2 h, 2 µM: 24.3 ×10⁻⁶ cm/s
[33]
  Activity: 16.08%
[34]
  Activity: 8.85%
[35]
  Activity: Active
[36]
  Activity: Active
